Experimental data from patent US20240025906A1 (NEURON23, INC., priority 2022, published 2024).

Tests used:
TYK2 JH2 = biological target: T1, TYK2 JH2 (Homo sapiens, UniProt P29597); test: TYK2 JH2 binding assay (KINOMEscan KdELECT competitive binding); conditions: TYK2 JH2 domain, DiscoverX KINOMEscan KdELECT (Assay A); read-out: Biochemical TYK2_DiscoverX_JH2_BND_Kd
T1 construct: purchased DiscoverX (KINOMEscan KdELECT service); host or cells: E. coli BL21-derived (T7 phage display) or HEK-293
In short: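 The assay measures displacement of DNA- or phage-tagged TYK2 pseudokinase domain from an affinity resin; compound binding lowers the amount captured, read by qPCR. Incubation lasts 1 h at room temperature.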

[1] = tested on: JAK1/TYK2 pSTAT5 (Tyr694/699) in THP-1 cell line; test: IFNa-stimulated JAK1/TYK2 pSTAT5 (Tyr694/699) inhibition cellular assay, AlphaLISA; assay type: cell-based; conditions: Homo sapiens; THP-1 cells, IFNa-stimulated, AlphaLISA (Assay B); read-out: Cellular_THP1_IFNa-pSTATS_TYK2
In short: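 Compound dilutions were dispensed first, and HBSS-suspended THP-1 cells were added on top (final top concentration 10000 nM, 6-fold series). After 1 h at 37 °C, IFNa (100 ng/mL as added) was applied for 30 min. Cells were then lysed and pSTAT5 was quantified by AlphaLISA.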

T1 sequence (P29597 589-875 limits assumed): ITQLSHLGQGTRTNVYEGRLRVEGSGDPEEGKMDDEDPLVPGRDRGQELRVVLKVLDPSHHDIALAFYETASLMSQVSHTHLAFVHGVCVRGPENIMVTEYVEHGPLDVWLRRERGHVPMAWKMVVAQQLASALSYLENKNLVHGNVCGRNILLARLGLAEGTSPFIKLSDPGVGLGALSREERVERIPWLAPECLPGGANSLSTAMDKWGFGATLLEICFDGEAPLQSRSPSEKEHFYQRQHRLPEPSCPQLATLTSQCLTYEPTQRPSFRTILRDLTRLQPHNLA

Row | SMILES | Kd (TYK2 JH2) | IC50 [1]
1 | CNc1ncc(-c2nc3cc(N4CC(OC)C4)ccc3o2)c2cc(NC(=O)C3CC3)ncc12 [Example 280, N-(5-(5-(3-methoxyazetidin-1-yl)benzo[d]oxazol-2-y1)-8-(methylamino)-2,7-naphthyridin-3-yl)cyclopropanecarboxamide] | ≤ 100 nM | ≤ 500 nM
2 | CNc1ncc(-c2nc3cc(N4CC[C@@H](OC)C4)ccc3o2)c2cc(NC(=O)C3CC3)ncc12 [Example 281, (R)-N-(5-(5-(3-methoxypyrrolidin-1-yl)benzo[d]oxazol-2-y1)-8-(methylamino)-2,7-naphthyridin-3-yl)cyclopropanecarboxamide] | ≤ 100 nM | ≤ 500 nM
3 | CNc1ncc(-c2nc3cc(N4CC(O)C4)ccc3o2)c2cc(NC(=O)C3CC3)ncc12 [Example 283, N-(5-(5-(3-hydroxyazetidin-1-yl)benzo[d]oxazol-2-y1)-8-(methylamino)-2,7-naphthyridin-3-yl)cyclopropanecarboxamide] | ≤ 100 nM | ≤ 500 nM
4 | CNc1ncc(-c2nc3cc(N4CC5COCC(C5)C4)ccc3o2)c2cc(NC(=O)C3CC3)ncc12 [Example 285, N-(5-(5-(3-oxa~7-azabicyclo[3.3.1]nonan-7-yl)benzo[d]oxazol-2-yl)-8-(methylamino)-2,7-naphthyridin-3-yl)cyclopropanecarboxamide] | ≤ 100 nM | ≤ 500 nM
5 | CNc1ncc(-c2nc3cc(N4CC(C)(OC)C4)ccc3o2)c2cc(NC(=O)C3CC3)ncc12 [Example 286, N-(5-(5-(3-methoxy-3-methylazetidin-1-yl)benzo[d]oxazol-2-yl)-8-(methylamino)-2,7-naphthyridin-3-yl)cyclopropanecarboxamide] | ≤ 100 nM | ≤ 500 nM
6 | CNc1ncc(-c2nc3cc(N4CC(N(C)C)C4)ccc3o2)c2cc(NC(=O)C3CC3)ncc12 [Example 287, N-(5-(5-(3-(dimethylamino)azetidin-1-yl)benzo[d]oxazol-2-y1)-8-(methylamino)-2,7-naphthyridin-3-yl)cyclopropanecarboxamide] | ≤ 100 nM | ≤ 500 nM
7 | CNc1ncc(-c2nc3cc(N4CC(C)(C)C4)ccc3o2)c2cc(NC(=O)C3CC3)ncc12 [Example 288, N-(5-(5-(3,3-dimethylazetidin-1-yl)benzo[d]oxazol-2-y1)-8-(methylamino)-2,7-naphthyridin-3-yl)cyclopropanecarboxamide] | ≤ 100 nM | ≤ 500 nM
8 | CNc1ncc(-c2nc3cc(N4CCC[C@@H](OC)C4)ccc3o2)c2cc(NC(=O)C3CC3)ncc12 [Example 290, (R)-N-(5-(5-(3-methoxypiperidin-1-yl)benzo[d]oxazol-2-yl)-8-(methylamino)-2,7-naphthyridin-3-yl)cyclopropanecarboxamide] | ≤ 100 nM | ≤ 500 nM
9 | CNc1ncc(-c2nc3cc(N4CCC[C@H](OC)C4)ccc3o2)c2cc(NC(=O)C3CC3)ncc12 [Example 291, (S)-N-(5-(5-(3-methoxypiperidin-1-yl)benzo[d]oxazol-2-y1)-8-(methylamino)-2,7-naphthyridin-3-yl)cyclopropanecarboxamide] | ≤ 100 nM | ≤ 500 nM
10 | CNc1ncc(-c2nc3cc(N4CCC[C@@H](C#N)C4)ccc3o2)c2cc(NC(=O)C3CC3)ncc12 [Example 292, (R)-N-(5-(5-(3-cyanopiperidin-1-yl)benzo[d]oxazol-2-y1)-8-(methylamino)-2,7-naphthyridin-3-yl)cyclopropanecarboxamide] | ≤ 100 nM | ≤ 500 nM
11 | CNc1ncc(-c2nc3cc(NCCOC)ccc3o2)c2cc(NC(=O)C3CC3)ncc12 [Example 294, N-(5-(5-((2-methoxyethyl)amino)benzo[d]oxazol-2-yl)-8-(methylamino)-2,7-naphthyridin-3-yl)cyclopropanecarboxamide] | ≤ 100 nM | ≤ 500 nM
12 | CNc1ncc(-c2nc3cc(NC(C)=O)ccc3o2)c2cc(NC(=O)C3CC3)ncc12 [Example 295, N-(5-(5-acetamidobenzo[d]oxazol-2-yl)-8-(methylamino)-2,7-naphthyridin-3-yl)cyclopropanecarboxamide] | ≤ 100 nM | ≤ 500 nM
13 | CNc1ncc(-c2nc3cc(N(C)C(C)=O)ccc3o2)c2cc(NC(=O)C3CC3)ncc12 [Example 297, N-(5-(5-(N-methylacetamido)benzo[d]oxazol-2-yl)-8-(methylamino)-2,7-naphthyridin-3-y1)cyclopropanecarboxamide] | ≤ 100 nM | ≤ 500 nM
14 | CNc1ncc(-c2nc3cc(N4C[C@H]5C[C@@H]4CO5)ccc3o2)c2cc(NC(=O)C3CC3)ncc12 [Example 299, N-(5-(5-((1R,4R)-2-oxa-5-azabicyclo[2.2.1]heptan-5-yl)benzo[d]oxazol-2-y1)-8-(methylamino)-2,7-naphthyridin-3-yl)cyclopropanecarboxamide] | ≤ 100 nM | ≤ 500 nM
15 | CNc1ncc(-c2nc3cc(N4CC5(CN(C)C5)C4)ccc3o2)c2cc(NC(=O)C3CC3)ncc12 [Example 300, N-(5-(5-(6-methyl-2,6-diazaspiro[3.3]heptan-2-yl)benzo[d]oxazol-2-yl)-8-(methylamino)-2,7-naphthyridin-3-yl)cyclopropanecarboxamide] | ≤ 100 nM | ≤ 500 nM
16 | CNc1ncc(-c2nc3cc(N4CCC(F)(F)CC4)ccc3o2)c2cc(NC(=O)C3CC3)ncc12 [Example 301, N-(5-(5-(4,4-difluoropiperidin-1-yl)benzo[d]oxazol-2-y1)-8-(methylamino)-2,7-naphthyridin-3-yl)cyclopropanecarboxamide] | ≤ 100 nM | ≤ 500 nM
17 | CNc1ncc(-c2nc3cc(N4CCS(=O)(=O)CC4)ccc3o2)c2cc(NC(=O)C3CC3)ncc12 [Example 303, N-(5-(5-(1,1-dioxidothiomorpholino)benzo[d]oxazol-2-yl)-8-(methylamino)-2,7-naphthyridin-3-yl)cyclopropanecarboxamide] | ≤ 100 nM | ≤ 500 nM

The next lines start with the values.

Row | Kd (TYK2 JH2) | IC50 [1] | SMILES
18 | ≤ 100 nM | ≤ 500 nM | CNc1ncc(-c2nc3cc(N4CCC4COC)ccc3o2)c2cc(NC(=O)C3CC3)ncc12 (centres unmarked) [Example 278, N-(5-(5-(2-(methoxymethyl)azetidin-1-yl)benzo[d]oxazol-2-y1)-8-(methylamino)-2,7-naphthyridin-3-yl)cyclopropanecarboxamide]
19 | ≤ 100 nM | ≤ 500 nM | CNc1ncc(-c2nc3cc(N4CC(F)(F)C4)ccc3o2)c2cc(NC(=O)C3CC3)ncc12 [Example 279, N-(5-(5-(3,3-difluoroazetidin-1-yl)benzo[d]oxazol-2-yl)-8-(methylamino)-2,7-naphthyridin-3-yl)cyclopropanecarboxamide]
20 | ≤ 100 nM | ≤ 500 nM | CNc1ncc(-c2nc3cc(N4CC[C@H](OC)C4)ccc3o2)c2cc(NC(=O)C3CC3)ncc12 [Example 282, (S)-N-(5-(5-(3-methoxypyrrolidin-1-yl)benzo[d]oxazol-2-y1)-8-(methylamino)-2,7-naphthyridin-3-yl)cyclopropanecarboxamide]
21 | ≤ 100 nM | ≤ 500 nM | CNc1ncc(-c2nc3cc(N4CC(F)C4)ccc3o2)c2cc(NC(=O)C3CC3)ncc12 [Example 284, N-(5-(5-(3-fluoroazetidin~1-yl)benzo[d]oxazol-2-y1)-8-(methylamino)-2,7-naphthyridin-3-yl)cyclopropanecarboxamide]
22 | ≤ 100 nM | ≤ 500 nM | CNc1ncc(-c2nc3cc(N4CCO[C@@H](C)C4)ccc3o2)c2cc(NC(=O)C3CC3)ncc12 [Example 289, (S)—N-(8-(methylamino)-5-(5-(2-methylmorpholino)benzo[d]oxazol-2-yl)-2,7-naphthyridin-3-yl)cyclopropanecarboxamide]
23 | ≤ 100 nM | ≤ 500 nM | CNc1ncc(-c2nc3cc(N4CCC[C@H](C#N)C4)ccc3o2)c2cc(NC(=O)C3CC3)ncc12 [Example 293]
24 | ≤ 100 nM | ≤ 500 nM | CNc1ncc(-c2nc3cc(N4CC5(COC5)C4)ccc3o2)c2cc(NC(=O)C3CC3)ncc12 [Example 296, N-(5-(5-(2-oxa-6-azaspiro[3.3]heptan-6-yl)benzo[d]oxazol-2-y1)-8-(methylamino)-2,7-naphthyridin-3-yl)cyclopropanecarboxamide]
25 | ≤ 100 nM | ≤ 500 nM | CNc1ncc(-c2nc3cc(N4C[C@@H]5C[C@H]4CO5)ccc3o2)c2cc(NC(=O)C3CC3)ncc12 [Example 298, N-(5-(5-((15,4S)-2-oxa-5-azabicyclo[2.2.1]heptan-5-yl)benzo[d]oxazol-2-y1)-8-(methylamino)-2,7-naphthyridin-3-yl)cyclopropanecarboxamide]
26 | ≤ 100 nM | ≤ 500 nM | CNc1ncc(-c2nc3cc(N4CCO[C@H](C)C4)ccc3o2)c2cc(NC(=O)C3CC3)ncc12 [Example 302, (R)-N-(8-(methylamino)-5-(5-(2-methylmorpholino)benzo[d]oxazol-2-yl)-2,7-naphthyridin-3-yl)cyclopropanecarboxamide]
27 | ≤ 100 nM | ≤ 500 nM | CNc1ncc(-c2nc3cc(N4CCN(C)CC4)ccc3o2)c2cc(NC(=O)C3CC3)ncc12 [Example 304, N-(8-(methylamino)-5-(5-(4-methylpiperazin-1-yI)benzo[d]oxazol-2-y1)-2,7-naphthyridin-3-yl)cyclopropanecarboxamide]
28 | ≤ 100 nM | ≤ 500 nM | CNc1ncc(-c2nc3cc(N4CC5CCC(C4)O5)ccc3o2)c2cc(NC(=O)C3CC3)ncc12 [Example 305]
